From patent US20230340011A1 (Asteroid Therapeutics, priority 2022, published 2023) come the findings set out here.

SMILES strings stand for the structures. Bounds are passed on as bounds.

Chain of LXRβ (P55055 whole entry, the tested form may be a part): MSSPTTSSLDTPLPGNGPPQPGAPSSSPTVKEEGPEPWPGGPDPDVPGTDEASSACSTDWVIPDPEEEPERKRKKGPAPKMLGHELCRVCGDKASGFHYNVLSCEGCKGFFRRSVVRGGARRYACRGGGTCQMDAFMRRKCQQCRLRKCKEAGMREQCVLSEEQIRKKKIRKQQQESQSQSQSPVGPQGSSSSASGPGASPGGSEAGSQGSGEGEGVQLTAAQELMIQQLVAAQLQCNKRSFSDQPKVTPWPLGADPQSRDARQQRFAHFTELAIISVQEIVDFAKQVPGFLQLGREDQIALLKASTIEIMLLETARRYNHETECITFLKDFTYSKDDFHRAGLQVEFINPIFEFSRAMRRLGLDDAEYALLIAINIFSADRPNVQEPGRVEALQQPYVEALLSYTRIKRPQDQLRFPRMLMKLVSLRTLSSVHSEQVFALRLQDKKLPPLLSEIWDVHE

The test has as its target LXRβ (Homo sapiens (Human), UniProt P55055). In words: In vitro assay LXRβ: PathHunter NHR CHO cells, LXRβ / Steroid Receptor Co-activator Peptide enzyme fragment complementation. The test is classed as cell-based. Particulars: PathHunter NHR CHO cells, full-length human LXRβ and SRCP, chemiluminescent signal; read-out: LXRβ PPI. In outline:
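Enzyme fragment complementation read-out: CHO cells stably expressing ProLink-tagged full-length human LXRβ plus nuclear enzyme acceptor–SRCP fusion, seeded and held overnight at 37° C. Medium with charcoal-dextran filtered serum; final vehicle 1%. Chemiluminescence measured after signal generation.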
`CO[C@H]1CCCN(C(=O)CC[C@@H](C)[C@H]2CC[C@H]3[C@@H]4CC=C5C[C@@H](O)CC[C@]5(C)[C@H]4CC[C@]23C)C1` [Example 300, (R)-4-((3S,8S,9S,10R,13R,14S,17R)-3-hydroxy-10,13-dimethyl-2,3,4,7,8,9,10,11,12,13,14,15,16,17-tetradecahydro-1H-cyclopenta[a]phenanthren-17-yl)-1-((S)-3-methoxypiperidin-1-yl)pentan-1-one]: the EC50 was in the range of 0.25 to 1 µM.

`C[C@H](CCC(=O)N1CCC(CNS(C)(=O)=O)CC1)[C@H]1CC[C@H]2[C@@H]3CC=C4C[C@@H](O)CC[C@]4(C)[C@H]3CC[C@]12C` [Example 232, N-((1-((R)-4-((3S,8S,9S,10R,13R,14S,17R)-3-hydroxy-10,13-dimethyl-2,3,4,7,8,9,10,11,12,13,14,15,16,17-tetradecahydro-1H-cyclopenta[a]phenanthren-17-yl)pentanoyl)piperidin-4-yl)methyl)methanesulfonamide]: the EC50 is more than 10 µM.

Turning to `CC(NC(=O)C(C)(C)O)C1CCN(C(=O)CC[C@@H](C)[C@H]2CC[C@H]3[C@@H]4CC=C5C[C@@H](O)CC[C@]5(C)[C@H]4CC[C@]23C)CC1` (stereo partly drawn) [Example 227, 2-hydroxy-N-(1-(1-((R)-4-((3S,8S,9S,10R,13R,14S,17R)-3-hydroxy-10,13-dimethyl-2,3,4,7,8,9,10,11,12,13,14,15,16,17-tetradecahydro-1H-cyclopenta[a]phenanthren-17-yl)pentanoyl)piperidin-4-yl)ethyl)-2-methylpropanamide], the EC50 is more than 10 µM.

Take `C[C@H](CCC(=O)N1CCN(Cc2cncnc2)CC1)[C@H]1CC[C@H]2[C@@H]3CC=C4C[C@@H](O)CC[C@]4(C)[C@H]3CC[C@]12C` [Example 224, (4R)-4-[(1R,3aS,3bS,7S,9aR,9bS,11aR)-7-hydroxy-9a,11a-dimethyl-1H,2H,3H,3aH,3bH,4H,6H,7H,8H,9H,9aH,9bH,10H,11H,11aH-cyclopenta[a]phenanthren-1-yl]-1-{4-[(pyrimidin-5-yl)methyl]piperazin-1-yl}pentan-1-one]: the EC50 was more than 10 µM.

As to `C[C@H](CCC(=O)N1CCC(OC(F)(F)F)CC1)[C@H]1CC[C@H]2[C@@H]3CC=C4C[C@@H](O)CC[C@]4(C)[C@H]3CC[C@]12C` [Example 251, (4R)-4-[(1R,3aS,3bS,7S,9aR,9bS,11aR)-7-hydroxy-9a,11a-dimethyl-1H,2H,3H,3aH,3bH,4H,6H,7H,8H,9H,9aH,9bH,10H,11H,11aH-cyclopenta[a]phenanthren-1-yl]-1-[4-(trifluoromethoxy)piperidin-1-yl]pentan-1-one], the EC50 is more than 10 µM.

Take `C[C@H](CCC(=O)N1CCN(c2ccncn2)CC1)[C@H]1CC[C@H]2[C@@H]3CC=C4C[C@@H](O)CC[C@]4(C)[C@H]3CC[C@]12C` [Example 302, (R)-4-((3S,8S,9S,10R,13R,14S,17R)-3-hydroxy-10,13-dimethyl-2,3,4,7,8,9,10,11,12,13,14,15,16,17-tetradecahydro-1H-cyclopenta[a]phenanthren-17-yl)-1-(4-(pyrimidin-4-yl)piperazin-1-yl)pentan-1-one]: the EC50 is more than 10 µM.

On to `Cc1nnc(N2CCN(C(=O)CC[C@@H](C)[C@H]3CC[C@H]4[C@@H]5CC=C6C[C@@H](O)CC[C@]6(C)[C@H]5CC[C@]34C)CC2)s1` [Example 225, (R)-4-((3S,8S,9S,10R,13R,14S,17R)-3-hydroxy-10,13-dimethyl-2,3,4,7,8,9,10,11,12,13,14,15,16,17-tetradecahydro-1H-cyclopenta[a]phenanthren-17-yl)-1-(4-(5-methyl-1,3,4-thiadiazol-2-yl)piperazin-1-yl)pentan-1-one], for which the EC50 was more than 10 µM.

As for `CC(=O)N1CCN(C(=O)CC[C@@H](C)[C@H]2CC[C@H]3[C@@H]4CC=C5C[C@@H](O)CC[C@]5(C)[C@H]4CC[C@]23C)[C@@H](C)C1` [Example 276, (4R)-4-[(1R,3aS,3bS,7S,9aR,9bS,11aR)-7-hydroxy-9a,11a-dimethyl-1H,2H,3H,3aH,3bH,4H,6H,7H,8H,9H,9aH,9bH,10H,11H,11aH-cyclopenta[a]phenanthren-1-yl]-1-[(2S)-4-acetyl-2-methylpiperazin-1-yl]pentan-1-one], the EC50 is more than 10 µM.

As to `CCCON(C)C(=O)CC[C@@H](C)[C@H]1CC[C@H]2[C@@H]3CC=C4C[C@@H](O)CC[C@]4(C)[C@H]3CC[C@]12C` [Example 12, (R)-4-((3S,8S,9S,10R,13R,14S,17R)-3-hydroxy-10,13-dimethyl-2,3,4,7,8,9,10,11,12,13,14,15,16,17-tetradecahydro-1H-cyclopenta[a]phenanthren-17-yl)-N-methyl-N-propoxypentanamide], the EC50 fell in the range of 0.25 to 1 µM.

Regarding `CON(CC(=O)OC(C)(C)C)C(=O)CC[C@@H](C)[C@H]1CC[C@H]2[C@@H]3CC=C4C[C@@H](O)CC[C@]4(C)[C@H]3CC[C@]12C` [Example 75, tert-butyl N—((R)-4-((3S,8S,9S,10R,13R,14S,17R)-3-hydroxy-10,13-dimethyl-2,3,4,7,8,9,10,11,12,13,14,15,16,17-tetradecahydro-1H-cyclopenta[a]phenanthren-17-yl)pentanoyl)-N-methoxyglycinate], the EC50 was in the range of 0.25 to 1 µM.

With `C[C@H](CCC(=O)N1CCN(C(=O)C2CC2)CC1)[C@H]1CC[C@H]2[C@@H]3CC=C4C[C@@H](O)CC[C@]4(C)[C@H]3CC[C@]12C` [Example 314, (4R)-4-[(1R,3aS,3bS,7S,9aR,9bS,11aR)-7-hydroxy-9a,11a-dimethyl-1H,2H,3H,3aH,3bH,4H,6H,7H,8H,9H,9aH,9bH,10H,11H,11aH-cyclopenta[a]phenanthren-1-yl]-1-(4-cyclopropanecarbonylpiperazin-1-yl)pentan-1-one], the EC50 is more than 10 µM.

On to `C[C@H](CCC(=O)N1O[C@H]2C[C@@H]1[C@H](O)[C@@H]2O)[C@H]1CC[C@H]2[C@@H]3CC=C4C[C@@H](O)CC[C@]4(C)[C@H]3CC[C@]12C` [Example 54, (R)-1-((1S,4R,5S,6S)-5,6-dihydroxy-2-oxa-3-azabicyclo [2.2.1]heptan-3-yl)-4-((3S,8S,9S,10R,13R,14S,17R)-3-hydroxy-10,13-dimethyl-2,3,4,7,8,9,10,11,12,13,14,15,16,17-tetradecahydro-1H-cyclopenta[a]phenanthren-17-yl) pentan-1-one], for which the EC50 is more than 10 µM.

For `C[C@H](CCC(=O)N1CCC(CN(C)S(C)(=O)=O)CC1)[C@H]1CC[C@H]2[C@@H]3CC=C4C[C@@H](O)CC[C@]4(C)[C@H]3CC[C@]12C` [Example 230, N-((1-((R)-4-((3S,8S,9S,10R,13R,14S,17R)-3-hydroxy-10,13-dimethyl-2,3,4,7,8,9,10,11,12,13,14,15,16,17-tetradecahydro-1H-cyclopenta[a]phenanthren-17-yl)pentanoyl)piperidin-4-yl)methyl)-N-methylmethanesulfonamide], the EC50 is more than 10 µM.

Regarding `C[C@H](CCC(=O)N(C)OCCCO)[C@H]1CC[C@H]2[C@@H]3CC=C4C[C@@H](O)CC[C@]4(C)[C@H]3CC[C@]12C` [Example 30, (R)-4-((3S,8S,9S,10R,13R,14S,17R)-3-hydroxy-10,13-dimethyl-2,3,4,7,8,9,10,11,12,13,14,15,16,17-tetradecahydro-1H-cyclopenta[a]phenanthren-17-yl)-N-(3-hydroxypropoxy)-N-methylpentanamide], the EC50 lay in the range of 1 to 10 µM.
